Experimental data: paper PMC11121200 (Acta Pharmaceutica Sinica. B, 2024)

Tests used:
CtMaT1 = experiment: HPLC initial-rate kinetics, nonlinear regression; format: biochemical, Cistanche tubulosa; conditions: 2 mmol/L malonyl-CoA as co-substrate, 1 mmol/L DTT, 100 mmol/L potassium phosphate pH 6.0, 30 °C
MatB [1] = target: T1, MatB (Arabidopsis thaliana, UniProt Q8H151); conditions: 1.5 mmol/L CoA, 3 mmol/L ATP, 5 mmol/L MgCl2, 1 mmol/L DTT, potassium phosphate pH 6.0, 30 °C, 12 h
T1 sequence (Q8H151 1-608): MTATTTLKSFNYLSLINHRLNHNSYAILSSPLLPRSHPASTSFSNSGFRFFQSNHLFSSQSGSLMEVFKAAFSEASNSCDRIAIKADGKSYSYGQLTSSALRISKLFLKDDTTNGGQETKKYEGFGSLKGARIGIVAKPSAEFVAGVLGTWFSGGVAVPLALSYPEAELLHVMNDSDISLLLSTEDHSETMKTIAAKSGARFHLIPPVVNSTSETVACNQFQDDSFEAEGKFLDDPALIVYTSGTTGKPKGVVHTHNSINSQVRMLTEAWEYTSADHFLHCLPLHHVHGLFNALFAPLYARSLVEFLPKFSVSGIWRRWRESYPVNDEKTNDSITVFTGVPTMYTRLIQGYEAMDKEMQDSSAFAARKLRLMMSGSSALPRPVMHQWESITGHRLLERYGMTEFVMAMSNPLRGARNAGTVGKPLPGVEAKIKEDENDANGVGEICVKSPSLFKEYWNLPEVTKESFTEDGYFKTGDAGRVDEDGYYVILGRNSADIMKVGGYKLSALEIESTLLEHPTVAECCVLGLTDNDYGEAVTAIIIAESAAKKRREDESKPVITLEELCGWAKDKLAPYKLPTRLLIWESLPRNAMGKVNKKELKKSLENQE

MatB [2] = target: T1, MatB; experiment: HPLC detection of malonyl-CoA formed; format: biochemical; conditions: 1.5 mmol/L CoA, 3 mmol/L ATP, 5 mmol/L MgCl2, 1 mmol/L DTT, potassium phosphate pH 6.0, 30 °C, 12 h

| Km (CtMaT1) [µM] | SMILES | other results |
| --- | --- | --- |
| 757 ± 58.2 | OC[C@H]1O[C@@H](OCCc2ccc(O)cc2)[C@H](O)[C@@H](O)[C@@H]1O [compound 2, salidroside] | – |
| – | CC(C(=O)O)C(=O)O [methylmalonic acid] | HPLC detection of methylmalonyl-CoA formed (MatB [1]): MatB could also conduct the synthesis of methyl-MLC |
| – | O=C(O)CC(=O)O [malonic acid] | HPLC detection of malonyl-CoA formed (MatB [2]): made directly from malonic acid in the presence of CoA, ATP, and MatB proteins |
| 685 ± 25.3 | OC[C@H]1O[C@@H](Oc2cc3c(O)cc(O)cc3[o+]c2-c2ccc(O)c(O)c2)[C@H](O)[C@@H](O)[C@@H]1O [compound 1, cyanidin 3-glucoside] | – |
